Patent publication US8263044B2, “Stilbene like compounds as novel HDAC inhibitors” (Orchid Research Laboratories Limited, priority 2005, dated 2012)

What was measured:
MDAMB231/U251 [1] = test: cells; details: 48 h, read-out: MDAMB231/U251 LC50
[2] = test system: HDAC activity (Mouse Liver Extract); test: Histone Deacetylase (HDAC) Inhibition Assay using Boc-Lys (Ac)-AMC Substrate; type: biochemical; details: mouse liver enzyme; for HDAC Inhibition 1 μM: inhibitor at 1 μM; for HDAC Inhibition 1 μM / HDAC Inhibition 10 μM: in % (unit assumed); for HDAC Inhibition 10 μM: inhibitor at 10 μM
Experimental: Histone Deacetylase (HDAC) Inhibition Assay using Boc-Lys (Ac)-AMC Substrate: Inhibition of HDAC has been implicated to modulate transcription and to induce apoptosis or differentiation in cancer cells. The fluorometric assay provides a fast and fluorescence based method that eliminates radioactivity, extractions or chromatography, as used in traditional assays. The assay based on two steps. First, the HDAC fluorometric substrate, which comprises an acetylated lysine side chain, is incubated with a sample containing HDAC activity (Mouse Liver Extract). Deacetylation of the substrate sensitizes the substrate, in the second step; treatment with the Trypsin stop solution produces a fluorophore that can be easily analyzed using fluorescence plate reader.
Assay was done in 96 well black microplate and total volume of the assay is 100 ul. Mouse liver enzyme is diluted 1:6 with HDAC buffer. Enzyme cocktail made of 10 ul of diluted enzyme and 30 ul of HDAC buffer. 40 ul of enzyme cocktail dispensed into each well. 10 ul of different concentrations of inhibitor added in to each well, except enzyme control well. Preincubated the plate at 30° C. for 5 minutes. The HDAC reaction is started by adding 50 ul of HDAC substrate (Boc-Lys (Ac)-AMC Substrate) solution. Incubated the plate at 30° C. for 30 minutes. Adding 100 ul of Trypsin stop solution stops the reaction. The plate is incubated again at 30° C. for 20-30 minutes. The release of AMC is monitored by measuring the fluorescence at excitation wavelength of 365 or 360 nm and emission wavelength of 440 or 460 nm. Buffer and substrate alone kept for blank subtraction. (Dennis Wegener et al, Anal. Biochem, 321, 2003, 202-208).

NCIH 460 cells = test: cells; details: Homo sapiens, NCI-H460, 48 h; for GI50: read-out: NCIH460 GI50; for CC50: read-out: NCIH460 LC50
Experimental: (§1) Experimental drugs are screened for anti-cancer activity in three cell lines for their GI50, TGI and LC50 values (using five concentrations for each compound). The cell lines are maintained in DMEM containing 10% fetal bovine serum. 96 well micro titer plates are inoculated with cells in 100 μL for 24 h at 37° C., 5% CO2, 95% air and 100% relative humidity. 5000 HCT 116 cells/well, 5000 NCIH 460 cells/well and 5000 U251 cells/well are plated. A separate plate with these cell lines is also inoculated to determine cell viability before the addition of the compounds (T0) (See Table I).
(§2) Following 24-hour incubation, experimental drugs are added to the 96 well plates. Each plate contains one of the above cell lines and the following in triplicate: five different concentrations (0.01, 0.1, 1, 10 and 100 μM) of four different compounds, appropriate dilutions of a cytotoxic standard and control (untreated) wells. Compounds are dissolved in DMSO to make 20 mM stock solutions on the day of drug addition and frozen at −20° C. Serial dilutions of these 20 mM stock solutions are made in complete growth medium such that 100 μL of these drug solutions in medium, of final concentrations equaling 0.01, 0.1, 1, 10 and 100 μM can be added to the cells in triplicate. […] (See Table I).
(§3) For T0 measurement, 24 hours after seeding the cells, 10 μL of 3-(4,5-Dimethyl-2-thiazolyl)-2,5-diphenyl-2H-tetrazolium (MTT) solution per well is added and incubation carried out for 3 hours at 37° C., 5% CO2, 95% air and 100% relative humidity, protected from light. Cells incubated with compounds for 48 hours are treated similarly except with the addition of 20 μL MTT solution per well and a subsequent incubation under the same conditions. After 3 hours of MTT incubation, well contents are aspirated carefully followed by addition of 150 μL DMSO per well. Plates are agitated to ensure solution of the formazan crystals in DMSO and absorbance read at 570 nm. (See Table I).
(§4) Percent growth is calculated for each compound's concentration relative to the control and zero measurement wells (T0; viability right before compound addition).
(§5) If a test well's O.D. value is lower than the T0 measurement for that cell line, then, % Growth=(test−zero)/zero×100

HCT 116 cells = test: cells; details: Homo sapiens, HCT-116, 48 h; for GI50: read-out: HCT116 GI50; for CC50: read-out: HCT116 LC50
Experimental: as §1, §2, §3, §4, §5

MDAMB231/U251 [3] = test: cells; details: 48 h, read-out: MDAMB231/U251 GI50
Experimental: as §1, §2, §3, §4, §5

[4] = test system: NCIH460, HCT116, MDAMB231/U251; test: Anti-cancer screen, mean GI50 over the cell lines; type: cell-based; details: mean over the three cell lines; no unit in table
Experimental: as §1, §2, §3
Percent growth is calculated for each compound's concentration relative to the control and zero measurement wells (T0; viability right before compound addition). […]

| Compound | CC50 (MDAMB231/U251 [1]) [µM] | HDAC Inhibition 1 μM [2] | HDAC Inhibition 10 μM [2] | GI50 (NCIH 460 cells) [µM] | CC50 (NCIH 460 cells) [µM] | GI50 (HCT 116 cells) [µM] | CC50 (HCT 116 cells) [µM] | GI50 (MDAMB231/U251 [3]) [µM] | GI50 [4] [µM] | IC50 [2] [µM] |
| --- | --- | --- | --- | --- | --- | --- | --- | --- | --- | --- |
| COc1cc(/C=C(\C(=O)NCCCCCC(=O)N(C)OC)c2ccc(O)cc2)cc(OC)c1OC [Example 7, (2Z)-3-(3,4,5-Trimethoxyphenyl)-2-(4-hydroxyphenyl)-N-[6-(N,O dimethylamine)-6-oxohexyl]acrylamide] | > 100 | 7.3 | 3.8 | 0.01 | 10 | 0.98 | > 100 | 0.8 | 0.6 |  |
| COc1cc(/C=C(\C(=O)NCCCCCC(=O)NO)c2ccc(F)cc2)cc(OC)c1 [Example 1, (2Z)-3-(3,5-Dimethoxyphenyl)-2-(4-fluorophenyl)-N-[6-(hydroxyamino)-6-oxohexyl]acrylamide] | 75 | 53.76 | 66.42 | > 100 | > 100 | 5 | 70 | 0.1 | 2.6 | 0.22 |
| COc1ccc(/C(=C/c2c(F)ccc(F)c2F)C(=O)NCCCCCC(=O)NO)cc1 [Example 40, (2Z)-3-(2,3,6-Trifluorophenyl)-2-(4-methoxyphenyl)-N-[6-(hydroxyamino)-6-oxohexyl]acrylamide] | 80 | 79.97 | 96.16 | 3 | > 100 | 5.8 | > 100 | 1 | 3.27 |  |
| CSc1ccc(/C=C(\C(=O)NCCCCCC(=O)NO)c2ccc(C(F)(F)F)cc2)cc1 [Example 38, (2Z)-3-(4-Thiomethylphenyl)-2-(4-trifluoromethylphenyl)-N-[6-(hydroxyamino)-6-oxohexyl]acrylamide] | 60 | 59.26 | 97.74 | 6 | 64 | 5.5 | 65 | 0.07 | 3.9 |  |
| CSc1ccc(/C=C(\C(=O)NCCCCCC(=O)NO)c2cccs2)cc1 [Example 43, (2Z)-3-(4-Thiomethylphenyl)-2-(thiophene-2-yl)-N-[6-(hydroxyamino)-6-oxohexyl]acrylamide] | 75 | 89.26 | 100 | 10 | > 100 | 5 | 70 | 0.05 | 5.02 | 0.26 |
| O=C(CCCCCNC(=O)/C(=C\c1ccncc1)c1ccc(F)cc1)Nc1ccc(O)cc1[N+](=O)[O-] [Example 15] | > 100 | 1.7 | 4 | > 100 | > 100 | > 100 | > 100 | > 100 | > 100 |  |
| Cc1ncsc1/C=C(\C(=O)NCCCCCC(=O)NO)c1ccc(Br)cc1 [Example 23, (2Z)-3-(4-Methylthiazol-5-yl)-2-(4-bromophenyl)-N-[6-(hydroxyamino)-6-oxohexyl]acrylamide] | 90 | 42.7 | 81.07 | 0.8 | > 100 | 6 | > 100 | 1 | 2.6 | 1.8 |
| O=C(CCCCCNC(=O)/C(=C\c1ccc(Cl)o1)c1ccc(F)cc1)NO [Example 37, (2Z)-3-(5-Chloro-2-furyl)-2-(4-fluorophenyl)-N-[6-(hydroxyamino)-6-oxohexyl]acrylamide] | 80 | 56.87 | 83.89 | 26 | 90 | 6 | 90 | 5 | 12.3 |  |
| CSc1ccc(/C=C(\C(=O)NCCCCCC(=O)NO)c2ccc(F)cc2)cc1 [Example 16, (2Z)-3-(4-Thiomethylphenyl)-2-(4-fluorophenyl)-N-[6-(hydroxyamine)-6-oxohexyl]acrylamide] | 90 | 68 | 83 | 0.01 | 24 | 1.9 | 32 | 0.15 | 0.7 | 0.061 |
| O=C(CCCCCNC(=O)/C(=C\c1ccccc1[N+](=O)[O-])c1ccc(Cl)cc1)NO [Example 30, (2Z)-3-(2-Nitrophenyl)-2-(4-chlorophenyl)-N-[6-(hydroxyamino)-6-oxohexyl]acrylamide] | > 100 | 52.95 | 84.69 | 30 | > 100 | 6 | > 100 | 3 | 13 |  |
| COc1cc(/C=C(\C(=O)NCCCCCC(=O)NO)c2ccc([N+](=O)[O-])cc2)cc(OC)c1 [Example 9, (2Z)-3-(3,5-Dimethoxyphenyl)-2-(4-nitrophenyl)-N-[6-(hydroxyamino)-6-oxohexyl]acrylamide] | 90 | 65.5 | 98.28 | 45 | 100 | 20 | 95 | 28 | 31 | 0.7 |
| CSc1ccc(/C=C(\C(=O)NCCCCCC(=O)NO)c2ccc([N+](=O)[O-])cc2)cc1 [Example 41, (2Z)-3-(4-Thiomethylphenyl)-2-(4-nitrophenyl)-N-[6-(hydroxyamino)-6-oxohexyl]acrylamide] | 90 | 68.69 | 92.83 | 15 | 94 | 6 | 90 | 9 | 10 |  |
| CSc1ccc(/C=C(\C(=O)NCCCCCC(=O)Nc2ncc([N+](=O)[O-])s2)c2ccc(F)cc2)cc1 [Example 17, (2Z)-3-(4-Thiomethylphenyl)-2-(4-fluorophenyl)-N-[6-(5-nitro-2-thiazoleamine)-6-oxohexyl]acrylamide] | > 100 | 0.7 | 2.3 | 0.25 | > 100 | 0.03 | > 100 | 0.71 | 0.3 |  |
| CSc1ccc(/C=C(\C(=O)NCCCCCC(=O)Nc2nc3cc(C)ccc3s2)c2ccc(F)cc2)cc1 [Example 19, (2Z)-3-(4-Thiomethylphenyl)-2-(4-fluorophenyl)-N-[6-(5-methyl-2-benzothiazoleamine)-6-oxohexyl]acrylamide] | > 100 | −22.2 | 10.2 | 8 | > 100 | > 100 | > 100 | 5.8 | 6.9 |  |
